Measured values from US20260248881A1, “PHARMACEUTICAL COMPOSITION COMPRISING FOXM1 INHIBITOR AND IMMUNE CHECKPOINT INHIBITOR FOR PREVENTING OR TREATING CANCER” (National Cancer Center, priority 2022, published 2026).

How the values were obtained:
H1299 and PC9 cells = test: Cell cycle distribution analysis (PI staining, flow cytometry); type: cell-based, human
Experimental: Both H1299 and PC9 cells were enzymatically dissociated using TrypLE (#12605-010; Thermo Fisher Scientific), collected by centrifugation at 2,000×g for 2 minutes, resuspended in PBS, fixed in 70% ethanol, and stored overnight at 4° C. Fixed cells were pelleted, washed twice with PBS, resuspended in FxCycle propidium iodide (PI)/RNase staining solution (#F10797; Thermo Fisher Scientific), and incubated in the dark at 37° C. for 30 minutes. Flow cytometry was performed using a FACS-LSR Fortessa flow cytometer (BD Biosciences, Santa Clara, CA, USA).

FOXM1 = biological target: T1, FOXM1 (Homo sapiens, UniProt Q08050); test: FOXM1 protein levels and nuclear translocation (nuclear cytoplasmic fractionation, Western blot, ICC); type: cell-based; settings: for FOXM1 overexpression decreased by: TST-treated cells; for restoration of FOXM1 levels by overexpression of FOXM1 in treated cells: compared to mock transfection
T1 construct: FLAG; expressed in transfected cells; host or cells: H1299 and PC9 cells
T1 sequence (Q08050 1-748 isoform Q08050-2): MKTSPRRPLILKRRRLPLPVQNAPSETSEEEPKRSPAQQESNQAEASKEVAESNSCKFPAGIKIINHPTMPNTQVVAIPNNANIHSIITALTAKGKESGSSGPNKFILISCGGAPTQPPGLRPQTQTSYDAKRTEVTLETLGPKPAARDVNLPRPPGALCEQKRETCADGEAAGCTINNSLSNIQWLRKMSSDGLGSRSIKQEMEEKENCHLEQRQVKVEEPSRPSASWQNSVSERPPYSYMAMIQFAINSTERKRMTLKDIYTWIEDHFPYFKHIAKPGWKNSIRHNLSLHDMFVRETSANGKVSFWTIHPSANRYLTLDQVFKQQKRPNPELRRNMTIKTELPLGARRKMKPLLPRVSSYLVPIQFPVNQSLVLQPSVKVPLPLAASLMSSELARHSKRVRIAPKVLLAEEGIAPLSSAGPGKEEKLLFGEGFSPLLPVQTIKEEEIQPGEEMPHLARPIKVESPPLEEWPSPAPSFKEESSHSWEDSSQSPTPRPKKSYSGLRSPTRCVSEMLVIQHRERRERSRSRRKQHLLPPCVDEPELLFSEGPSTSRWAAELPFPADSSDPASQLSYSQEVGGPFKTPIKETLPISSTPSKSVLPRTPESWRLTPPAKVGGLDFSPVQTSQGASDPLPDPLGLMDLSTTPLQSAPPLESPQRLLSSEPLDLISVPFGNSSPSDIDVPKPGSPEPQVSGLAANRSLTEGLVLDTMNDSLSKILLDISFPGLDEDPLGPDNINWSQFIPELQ
Experimental: To confirm protein subcellular localization, lysis of H1299 and PC9 cell pellets was performed in Buffer A (10 mM HEPES, 10 mM KCl, 1.5 mM MgCl2, 0.5 mM dithiothreitol (DTT), and 0.05% IGEPAL CA-630 (pH 7.9)) for 10 minutes. The Buffer A lysate was centrifuged at 1,000×g for 10 minutes at 4° C. to collect the nuclear fraction. After removal of the cytosolic fraction, buffer B containing 5 mM HEPES, 0.2 mM EDTA, 1.5 mM MgCl2, 0.5 mM DTT, and 26% glycerol (v/v) (pH 7.9) was added to the nuclear fraction and lysed on ice for 30 minutes.
Cells were lysed in RIPA buffer supplemented with complete mini protease inhibitor cocktail (#04693124001; Roche, Basel, Switzerland) and kept on ice for 30 minutes. Equal amounts of protein were evenly loaded and analyzed by sodium dodecyl sulfate-polyacrylamide gel electrophoresis (SDS-PAGE), and transferred to polyvinylidene difluoride (PVDF) membranes (#IPVH 00010; Millipore, Billerica, MA, USA) at 100 V for 1 hour. Primary antibodies (Santa Cruz Biotechnology, Texas, USA) specific for FOXM1 (#sc-271746), cyclin E1 (#sc-481), α-tubulin (#sc-8035), and β-actin (#sc-47778); PD-L1 (#13684S), cyclin D1 (#2978S), cyclin B1 (#4138S), c-MYC (#5605S), and poly(ADP-ribose) polymerase (PARP, #9542S; Cell Signaling Technology, Beverly, MA, USA) were used to probe proteins of interest. A horseradish-peroxidase-conjugated secondary antibodies specific to the primary antibody was used to detect proteins using pico-enhanced chemiluminescence substrate (#34577; Thermo Fisher Scientific).
Cells were fixed in 4% paraformaldehyde (#30525-89-4; FUJIFILM Wako Chemical, Wako, Japan) for 15 minutes and blocked with 1% bovine serum albumin (BSA) in phosphate-buffered saline-0.01% Tween-20 (PBS-T) to reduce nonspecific antibody binding. Cells were then incubated overnight with an anti-PD-L1 antibody (#14598382; eBioscience, San Diego, CA, USA) diluted 1:200 and an anti-FOXM1 antibody (#sc-271746; Santa Cruz Biotechnology) diluted 1:50, followed by incubation with an Alexa Fluor 488-labeled secondary antibody (#A11029; Thermo Fisher Scientific) for 1 hour. Nuclei were stained with Hoechst 33342. After incubation, cells were washed with PBS and mounted on glass slides using Prolong Glass Antifade mounting medium (#P36982; Thermo Fisher Scientific). Confocal microscopy was performed using a Zeiss 730 Meta microscope (Carl Zeiss, Oberkochen, Germany) and analyzed using Axiovision software (Carl Zeiss).

[1] = vs NC siRNA or DMSO-treated group, time-dependent

Substance: thiostrepton [TST]
- G2 population (H1299 and PC9 cells; both cell lines, vs DMSO-treated group): an increase in the G2 population
- S phase population (H1299 and PC9 cells; [1]): decreased a S phase population
- sub-G0/G1 population (H1299 and PC9 cells; [1]): increased the sub-G0/G1 population
- FOXM1 overexpression decreased by (FOXM1; H1299): 63.7%
- restoration of FOXM1 levels by overexpression of FOXM1 in treated cells (FOXM1; H1299): 84.33%
- protein levels and nuclear translocation of FOXM1 (FOXM1; H1299 and PC9, TST 5 μM in the presence of IFN-γ 20 ng mL-1, or siFOXM1): decreased the protein levels and nuclear translocation of FOXM1
- FOXM1 overexpression decreased by (FOXM1; PC9): 44%
- restoration of FOXM1 levels by overexpression of FOXM1 in treated cells (FOXM1; PC9): 57.56%
